Structures can show the parent of a compound that is named as a salt.

System in one series: not given
Assay: not given
Settings: not given
`NC/C(=C\F)CCc1cccc(F)c1.O=C(O)C(F)(F)F` showed a melting point of 47 to 48 °C.
`NC/C(=C/F)CCc1cccc(F)c1.O=C(O)C(F)(F)F` came in with a melting point of 72 to 73 °C.
`NC/C(=C/F)CCc1cc(F)cc(C(F)(F)F)c1.O=C(O)C(F)(F)F` showed a melting point of 58 to 59 °C.
Same read-out and setting: the figure for `COc1ccc(C/C(=C\F)CN)cc1OC.Cl` is 204 to 205 °C.
The same measure, in the same setting: the figure for `COc1ccc(C/C(=C/F)CN)cc1OC.Cl` is 220 to 221 °C.
In turn, `COc1cccc(CC/C=C(/F)CN)c1.Cl` returned a melting point of 112 to 113 °C.
Regarding `NCC(=CF)Cc1cccc(O)c1` (as salt: citrate), the melting point fell in the range of 145 to 146 °C.
Same read-out and setting: the same measure for `CSc1cccc(C/C(=C/F)CN)c1` (as salt: hydrochloride): 145 to 146 °C; for `Cc1ccc(C/C(=C/F)CN)cc1` (as salt: hydrochloride): 150 to 151 °C.
Same read-out and setting: the same measure for `NC/C(=C\F)Cc1ccc(-c2ccccc2)cc1` (as salt: hydrochloride): 219 to 220 °C; for `NC/C(=C\F)Cc1ccc(F)cc1` (as salt: hydrochloride): 139 to 140 °C.
For `NC/C(=C\F)Cc1cccc(C(F)(F)F)c1` (as salt: hydrochloride), the melting point was in the range of 161 to 162 °C.
`Cc1ccc(C/C(=C/F)CN)cc1F` (as salt: hydrochloride) displayed a melting point of 160 to 161 °C.
On the same count and under the same terms, the same measure for `Cc1cc(C/C(=C/F)CN)ccc1F` (as salt: hydrochloride): 158 to 159 °C; for `NC/C(=C\F)Cc1cc(F)cc(Cl)c1` (as salt: hydrochloride): 158 to 159 °C.
Still for that read-out and setting: the figure for `NC/C(=C\F)Cc1ccc(F)cc1F` (as salt: hydrochloride) is 130 to 131 °C; for `NC/C(=C\F)Cc1cc(Cl)cc(Cl)c1` (as salt: hydrochloride) it is 184 to 185 °C; for `NC/C(=C\F)Cc1ccc(F)c(F)c1` (as salt: hydrochloride) it is 141 to 142 °C.
On the same count and under the same terms, the same measure for `NC/C(=C\F)Cc1cccc(Cl)c1` (as salt: hydrochloride): 145 to 146 °C.
As to `NC/C(=C/Cl)CCc1ccccc1` (as salt: hydrochloride), the melting point was 97 to 98 °C.
Same read-out and setting: the figure for `NC/C(=C/Cl)CCc1ccc(C(F)(F)F)cc1` (as salt: hydrochloride) is 89 to 90 °C.
The same measure, in the same setting: the figure for `COc1cc(C/C(=C/F)CN)cc(OC)c1` (as salt: hydrochloride) is 194 to 195 °C; for `COCc1cccc(C/C=C(/F)CN)c1` (as salt: hydrochloride) it is 165 to 166 °C; for `Cc1cccc(C/C(=C/F)CN)c1` (as salt: hydrochloride) [Compound I-13, (Z)-3-Fluoro-2-(3-methylbenzyl)allylamine hydrochloride] it is 118 to 119 °C.
On to `COc1ccc(C/C(=C/F)CN)cc1F` (as salt: hydrochloride) [Compound I-21, (Z)-3-Fluoro-2-(3-fluoro-4-methoxybenzyl)allylamine hydrochloride], for which the melting point was 170 °C (dec.).
The same measure, in the same setting: the same measure for `NC/C(=C\F)Cc1ccc(F)c(Cl)c1` (as salt: hydrochloride) [Compound I-23, (Z)-3-Fluoro-2-(3-chloro-4-fluorobenzyl)allylamine hydrochloride]: 163 to 164 °C.
With `NC/C(=C\F)Cc1cc(F)ccc1F` (as salt: hydrochloride) [Compound I-24, (Z)-3-Fluoro-2-(2,5-difluorobenzyl)allylamine hydrochloride], the melting point was in the range of 105 to 106 °C.
`COc1ccc(CC/C(=C/Cl)CN)cc1` (as salt: hydrochloride) [Compound I-33, (Z)-3-Chloro-2-(4-methoxyphenylethyl)allylamine hydrochloride] yielded a melting point of 123 to 124 °C.
In turn, `CCOc1ccc(CC/C(=C/Cl)CN)cc1` (as salt: hydrochloride) [Compound I-34, (Z)-3-Chloro-2-(4-ethoxyphenylethyl)allylamine hydrochloride] returned a melting point of 160 to 162 °C.
Still for that read-out and setting: the figure for `CCCCOc1ccc(CC/C(=C/Cl)CN)cc1` (as salt: hydrochloride) [Compound I-36, (Z)-3-Chloro-2-(4-n-butoxyphenylethyl)allylamine hydrochloride] is 133 to 134 °C; for `Cc1cccc(CC/C(=C/Cl)CN)c1` (as salt: hydrochloride) [Compound I-37, (Z)-3-Chloro-2-(3-methylphenylethyl)allylamine hydrochloride] it is 102 to 103 °C; for `COc1cccc(CC/C(=C/Cl)CN)c1` (as salt: hydrochloride) [Compound I-38, (Z)-3-Chloro-2-(3-methoxyphenylethyl)allylamine hydrochloride] it is 139 to 140 °C.
Still for that read-out and setting: the figure for `NC/C(F)=C\Cc1cccc(C(F)(F)F)c1` (as salt: hydrochloride) [II-2, (E)-2-Fluoro-4-(3-trifluoromethylphenyl)-2-butenylamine hydrochloride] is 145 to 147 °C; for `CS(=O)(=O)c1ccc(C/C(=C/F)CN)cc1` (as salt: trifluoroacetate) it is 49 to 50 °C.
`NC/C(=C\Cl)CCc1ccc(F)cc1` (as salt: trifluoroacetate) showed a melting point of 69 to 70 °C.
With `NC/C(=C\Cl)CCc1ccc(Cl)cc1` (as salt: trifluoroacetate), the melting point lay in the range of 89 to 90 °C.
`Cc1ccc(CC/C(=C/Cl)CN)cc1.Cl` [Compound I-39-Z, (Z)-3-Chloro-2-(4-methylphenylethyl)allylamine hydrochloride]: the melting point is 135 °C (dec.).
The same measure, in the same setting: the same measure for `NC/C(=C/Cl)CCc1ccc(F)cc1.O=C(O)C(F)(F)F` [Compound I-42-Z, (E)-3-Chloro-2-(4-fluorophenylethyl)allylamine trifluoroacetate]: 52 to 53 °C; for `NC/C(=C/Cl)CCc1ccc(Cl)cc1.O=C(O)C(F)(F)F` [Compound I-43-Z, (E)-3-Chloro-2-(4-chlorophenylethyl)allylamine trifluoroacetate]: 68 to 70 °C; for `Cc1cccc(CC/C(=C\Cl)CN)c1.Cl` [Compound I-48-E, (E)-3-Chloro-2-(3-methylphenylethyl)allylamine hydrochloride]: 95 to 97 °C.
Take `COc1cccc(CC/C(=C\Cl)CN)c1.Cl` [Compound I-49-E, (E)-3-Chloro-2-(3-methoxyphenylethyl)allylamine hydrochloride]: the melting point fell in the range of 85 to 87 °C.
Same read-out and setting: the same measure for `Cc1ccc(CC/C(=C\Cl)CN)cc1.Cl` [Compound I-50-E, (E)-3-Chloro-2-(4-methylphenylethyl)allylamine hydrochloride]: 124 to 125 °C; for `COc1cccc(C(C)/C=C(/F)CN)c1.Cl` (centres unmarked) [II-18-E]: 133 to 134 °C.

In a further series the target is T1, Human SSAO (Homo sapiens, UniProt Q16853).
T1 construct: rat lung or human umbilical cord homogenates were prepared by chopping the freshly removed tissue; from tissue; host or cells: human umbilical cord homogenate (25,000 g supernatant)
T1 sequence (Q16853 1-763): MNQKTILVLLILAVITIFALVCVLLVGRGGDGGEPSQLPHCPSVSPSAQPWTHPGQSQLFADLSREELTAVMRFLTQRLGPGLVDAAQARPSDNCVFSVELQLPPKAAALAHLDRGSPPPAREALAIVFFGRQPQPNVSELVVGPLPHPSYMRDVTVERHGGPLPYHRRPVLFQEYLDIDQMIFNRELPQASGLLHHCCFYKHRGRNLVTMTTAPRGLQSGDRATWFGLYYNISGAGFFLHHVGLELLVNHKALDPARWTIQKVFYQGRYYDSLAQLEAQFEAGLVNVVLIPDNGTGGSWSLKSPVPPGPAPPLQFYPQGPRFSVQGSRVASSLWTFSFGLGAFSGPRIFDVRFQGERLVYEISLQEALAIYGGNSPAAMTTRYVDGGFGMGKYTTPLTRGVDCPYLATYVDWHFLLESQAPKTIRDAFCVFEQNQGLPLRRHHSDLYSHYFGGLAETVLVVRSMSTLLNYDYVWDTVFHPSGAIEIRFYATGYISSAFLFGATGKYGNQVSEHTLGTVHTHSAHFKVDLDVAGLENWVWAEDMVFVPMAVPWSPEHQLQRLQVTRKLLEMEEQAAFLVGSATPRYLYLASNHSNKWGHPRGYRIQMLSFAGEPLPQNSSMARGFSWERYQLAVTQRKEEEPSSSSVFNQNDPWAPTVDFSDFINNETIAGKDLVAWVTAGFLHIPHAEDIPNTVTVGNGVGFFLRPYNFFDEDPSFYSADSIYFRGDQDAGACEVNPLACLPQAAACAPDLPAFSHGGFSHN
Kind of series: In vitro inhibition of SSAO activity, human umbilical cord homogenate, 14C-benzylamine. Set-up: Human SSAO, percent at given concentration: unit of the concentration uncertain. The format is biochemical. The following applies: @8 (unit uncertain). As to the method:
SSAO activity was measured as described (Lizcano J M. Et al. (1998) Biochem J. 331:69). Briefly, rat lung or human umbilical cord homogenates were prepared by chopping the freshly removed tissue into small pieces and washing them thoroughly in PBS. The tissue was then homogenized 1:10 (w/v) for lung or 1:5 (w/v) for umbilical cord, in 10 mM potassium phosphate buffer (pH 7.8). Homogenates were then centrifuged at 1000 g at 4° C. for 10 min (lung) or 25,000 g for 30 min (umbilical cord); the supernatants were kept frozen until ready to use. Lung or umbilical cord homogenate was preincubated with clorgyline and pargyline at 1 μM to inhibit MAO-A and -B activity, respectively, and SSAO inhibitors were generally present at 1 nM-10 μM. The reaction was initiated by addition of 20 μM ^14C— benzylamine as substrate. The reaction was carried out at 37° C. in a final volume of 400 μL of 100 mM potassium phosphate buffer (pH 7.2) and stopped with 100 μl of 2M citric acid. Radioactively labeled products were extracted into toluene/ethyl acetate (1:1, v/v) containing 0.6% (w/v) 2,5-diphenyloxazole (PPO) before liquid scintillation counting.
In the case of `NC/C(=C/Cl)CCc1ccc(F)cc1.O=C(O)C(F)(F)F` [Compound I-42-Z, (E)-3-Chloro-2-(4-fluorophenylethyl)allylamine trifluoroacetate], the “Human SSAO, percent at given concentration” value amounted to 73%@8 mM.
On the same count and under the same terms, the figure for `NCC(=O)CCc1ccc(F)cc1` [IV-1, 1-amino-4-(4-fluorophenyl)butan-2-one] is 45%@8 mM.

Staying with this series, now noted: human umbilical cord homogenate; read-out: Human SSAO IC50.
For the compound `Cc1ccc(CC/C(=C/Cl)CN)cc1.Cl` [Compound I-39-Z, (Z)-3-Chloro-2-(4-methylphenylethyl)allylamine hydrochloride], the half-maximal inhibitory concentration (IC50) was found to be 1200 nM.
With `NC/C(=C/Cl)CCc1ccc(Cl)cc1.O=C(O)C(F)(F)F` [Compound I-43-Z, (E)-3-Chloro-2-(4-chlorophenylethyl)allylamine trifluoroacetate], the half-maximal inhibitory concentration (IC50) was 1400 nM.
Same read-out and setting: the figure for `Cc1cccc(CC/C(=C\Cl)CN)c1.Cl` [Compound I-48-E, (E)-3-Chloro-2-(3-methylphenylethyl)allylamine hydrochloride] is 10000 nM; for `COc1cccc(CC/C(=C\Cl)CN)c1.Cl` [Compound I-49-E, (E)-3-Chloro-2-(3-methoxyphenylethyl)allylamine hydrochloride] it is 5500 nM; for `Cc1ccc(CC/C(=C\Cl)CN)cc1.Cl` [Compound I-50-E, (E)-3-Chloro-2-(4-methylphenylethyl)allylamine hydrochloride] it is 1000 nM.
`COc1ccc(CCC(=O)CN)cc1` [IV-3, 1-amino-4-(4-methoxyphenyl)butan-2-one]: the half-inhibitory concentration (IC50) came to 3000 nM.
Still for that read-out and setting: the same measure for `COc1cccc(CCC(=O)CN)c1` [IV-8, 1-amino-4-(3-methoxyphenyl)butan-2-one]: 3700 nM.
On the same count and under the same terms, the same measure for `NCC(=O)CCc1cc(F)cc(C(F)(F)F)c1` [IV-10, 1-amino-4-(3-fluoro-5-(trifluoromethyl)phenyl)butan-2-one]: 1500 nM.

For the origin of these results see patent publication US20110269811A1, “INHIBITORS OF SEMICARBAZIDE-SENSITIVE AMINE OXIDASE (SSAO) AND VAP-1 MEDIATED ADHESION USEFUL FOR TREATMENT AND PREVENTION OF DISEASES” (priority 2006, published 2011).
